“And” between values parts separate entries of the source, which are not always exact repeats. Equal entries are not always repeated. Inconclusive results and toxic doses are left out. No stated cut-off is given here; in the data, active means T/C of 150% or more; inactive means T/C below 125%.
Tested on: L1210 leukemia ip in BDF1 mice, survival T/C
Assay: NCI In Vivo Anticancer Drug Screen. Data for tumor model L1210 Leukemia (intraperitoneal) in B6D2F1 (BDF1) mice
Settings: higher = longer survival
Outline: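 Tumor cells were implanted, animals were treated, and survival was followed. The result divides the treated measurement by the vehicle-control measurement.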

[1] = endpoint: mean survival time, dose: 100.0 mg/kg/injection, schedule: Q04DX003 (ip), vehicle: saline
[2] = endpoint: mean survival time, dose: 200.0 mg/kg/injection, schedule: Q04DX003 (ip), vehicle: saline
[3] = endpoint: mean survival time, dose: 400.0 mg/kg/injection, schedule: Q04DX003 (ip), vehicle: saline
[4] = endpoint: mean survival time, dose: 100.0 mg/kg/injection, schedule: Q01DX001 (ip), vehicle: other

Measured: T/C

CSc1ncnc2nc[nH]c12
inactive: endpoint: mean survival time, dose: 1.5 mg/kg/injection, schedule: Q01DX Z (ip), vehicle: saline 95 % of control | endpoint: mean survival time, dose: 3.0 mg/kg/injection, schedule: Q01DX Z (ip), vehicle: saline 95 % of control | endpoint: mean survival time, dose: 6.0 mg/kg/injection, schedule: Q01DX Z (ip), vehicle: saline 103 % of control | endpoint: mean survival time, dose: 12.0 mg/kg/injection, schedule: Q01DX Z (ip), vehicle: saline 95 % of control | endpoint: mean survival time, dose: 12.5 mg/kg/injection, schedule: Q#A X Z (ip), vehicle: saline 108 % of control | endpoint: mean survival time, dose: 25.0 mg/kg/injection, schedule: Q01DX006 (iv), vehicle: saline 103 % of control | endpoint: mean survival time, dose: 25.0 mg/kg/injection, schedule: Q01DX009 (ip), vehicle: saline 97 % of control | endpoint: mean survival time, dose: 25.0 mg/kg/injection, schedule: Q01DX010 (ip), vehicle: saline 92 % of control | endpoint: mean survival time, dose: 25.0 mg/kg/injection, schedule: Q01DX Z (im), vehicle: methylcellulose (MC) 94 % of control | endpoint: mean survival time, dose: 25.0 mg/kg/injection, schedule: Q01DX Z (ip), vehicle: saline 101 % of control | endpoint: mean survival time, dose: 25.0 mg/kg/injection, schedule: Q01DX Z (sc), vehicle: methylcellulose (MC) 117 % of control | endpoint: mean survival time, dose: 25.0 mg/kg/injection, schedule: Q#A X Z (ip), vehicle: saline 103 % of control | endpoint: mean survival time, dose: 30.0 mg/kg/injection, schedule: Q01DX015 (ip), vehicle: carboxymethylcellulose (CMC) 114 % of control | endpoint: mean survival time, dose: 45.0 mg/kg/injection, schedule: Q01DX015 (ip), vehicle: carboxymethylcellulose (CMC) 104 % of control | endpoint: mean survival time, dose: 50.0 mg/kg/injection, schedule: Q01DX006 (iv), vehicle: saline 100 % of control | endpoint: mean survival time, dose: 50.0 mg/kg/injection, schedule: Q01DX009 (ip), vehicle: saline 102 % of control and 104 % of control | endpoint: mean survival time, dose: 50.0 mg/kg/injection, schedule: Q01DX010 (ip), vehicle: saline 89 % of control | endpoint: mean survival time, dose: 50.0 mg/kg/injection, schedule: Q01DX Z (im), vehicle: methylcellulose (MC) 107 % of control | endpoint: mean survival time, dose: 50.0 mg/kg/injection, schedule: Q01DX Z (ip), vehicle: saline 105 % of control | endpoint: mean survival time, dose: 50.0 mg/kg/injection, schedule: Q01DX Z (sc), vehicle: methylcellulose (MC) 96 % of control | endpoint: mean survival time, dose: 50.0 mg/kg/injection, schedule: Q#A X Z (ip), vehicle: saline 112 % of control | endpoint: mean survival time, dose: 60.0 mg/kg/injection, schedule: Q01DX015 (ip), vehicle: carboxymethylcellulose (CMC) 114 % of control | endpoint: mean survival time, dose: 75.0 mg/kg/injection, schedule: Q01DX015 (ip), vehicle: carboxymethylcellulose (CMC) 108 % of control | endpoint: mean survival time, dose: 75.0 mg/kg/injection, schedule: Q03DX Z (ip), vehicle: saline 100 % of control | endpoint: mean survival time, dose: 90.0 mg/kg/injection, schedule: Q01DX015 (ip), vehicle: carboxymethylcellulose (CMC) 109 % of control | endpoint: mean survival time, dose: 100.0 mg/kg/injection, schedule: Q01DX006 (iv), vehicle: saline 108 % of control | endpoint: mean survival time, dose: 100.0 mg/kg/injection, schedule: Q01DX009 (ip), vehicle: saline 102 % of control and 103 % of control | endpoint: mean survival time, dose: 100.0 mg/kg/injection, schedule: Q01DX010 (ip), vehicle: saline 95 % of control and 87 % of control | endpoint: mean survival time, dose: 100.0 mg/kg/injection, schedule: Q01DX Z (im), vehicle: methylcellulose (MC) 89 % of control | endpoint: mean survival time, dose: 100.0 mg/kg/injection, schedule: Q01DX Z (ip), vehicle: saline 111 % of control | endpoint: mean survival time, dose: 100.0 mg/kg/injection, schedule: Q01DX Z (sc), vehicle: methylcellulose (MC) 113 % of control | endpoint: mean survival time, dose: 120.0 mg/kg/injection, schedule: Q01DX001 (ip), vehicle: carboxymethylcellulose (CMC) 95 % of control and 100 % of control | endpoint: mean survival time, dose: 125.0 mg/kg/injection, schedule: Q01DX001 (ip), vehicle: methylcellulose (MC) 105 % of control and 108 % of control | endpoint: mean survival time, dose: 150.0 mg/kg/injection, schedule: Q03DX Z (ip), vehicle: saline 101 % of control | endpoint: mean survival time, dose: 180.0 mg/kg/injection, schedule: Q01DX001 (ip), vehicle: carboxymethylcellulose (CMC) 102 % of control and 106 % of control | endpoint: mean survival time, dose: 200.0 mg/kg/injection, schedule: Q01DX006 (iv), vehicle: saline 97 % of control | endpoint: mean survival time, dose: 200.0 mg/kg/injection, schedule: Q01DX009 (ip), vehicle: saline 97 % of control and 100 % of control | endpoint: mean survival time, dose: 200.0 mg/kg/injection, schedule: Q01DX010 (ip), vehicle: saline 105 % of control | endpoint: mean survival time, dose: 200.0 mg/kg/injection, schedule: Q01DX Z (im), vehicle: methylcellulose (MC) 102 % of control | endpoint: mean survival time, dose: 200.0 mg/kg/injection, schedule: Q01DX Z (ip), vehicle: saline 105 % of control | endpoint: mean survival time, dose: 200.0 mg/kg/injection, schedule: Q01DX Z (sc), vehicle: methylcellulose (MC) 112 % of control | endpoint: mean survival time, dose: 250.0 mg/kg/injection, schedule: Q01DX001 (ip), vehicle: methylcellulose (MC) 106 % of control and 108 % of control | endpoint: mean survival time, dose: 270.0 mg/kg/injection, schedule: Q01DX001 (ip), vehicle: carboxymethylcellulose (CMC) 103 % of control and 117 % of control | endpoint: mean survival time, dose: 300.0 mg/kg/injection, schedule: Q03DX Z (ip), vehicle: saline 100 % of control | endpoint: mean survival time, dose: 500.0 mg/kg/injection, schedule: Q01DX001 (ip), vehicle: methylcellulose (MC) 116 % of control | endpoint: mean survival time, dose: 1000.0 mg/kg/injection, schedule: Q01DX001 (ip), vehicle: methylcellulose (MC) 112 % of control | endpoint: median survival time, dose: 25.0 mg/kg/injection, schedule: Q01DX009 (ip), vehicle: saline 100 % of control | endpoint: median survival time, dose: 50.0 mg/kg/injection, schedule: Q01DX009 (ip), vehicle: saline 95 % of control and 106 % of control | endpoint: median survival time, dose: 100.0 mg/kg/injection, schedule: Q01DX009 (ip), vehicle: saline 100 % of control and 106 % of control | endpoint: median survival time, dose: 200.0 mg/kg/injection, schedule: Q01DX009 (ip), vehicle: saline 100 % of control and 115 % of control

Cc1ccc(C2CC2S(=O)(=O)c2ccccc2)cc1 (centres undefined)
inactive: endpoint: mean survival time, dose: 100.0 mg/kg/injection, schedule: Q01DX001 (ip), vehicle: saline 108 % of control | endpoint: mean survival time, dose: 200.0 mg/kg/injection, schedule: Q01DX001 (ip), vehicle: saline 112 % of control | endpoint: mean survival time, dose: 400.0 mg/kg/injection, schedule: Q01DX001 (ip), vehicle: saline 102 % of control

CCCCOC(=O)c1ccc(NC(=O)CCC(C)Cl)cc1 (centres undefined)
inactive: [1] 94 % of control | [2] 90 % of control | [3] 92 % of control

N#Cc1nc2c(nc1N)CCCCCCCCCC2
inactive: endpoint: mean survival time, dose: 100.0 mg/kg/injection, schedule: Q01DX001 (ip), vehicle: Klucel (hydroxypropylcellulose) (HPC) 96 % of control | endpoint: mean survival time, dose: 400.0 mg/kg/injection, schedule: Q01DX001 (ip), vehicle: Klucel (hydroxypropylcellulose) (HPC) 92 % of control

Cn1c(=O)cc(CC#N)c2ccccc21
inactive: [4] 100 % of control

c1ccc2cc3nc4c(nc3cc2c1)[nH]c1ccccc14
inactive: [4] 87 % of control | endpoint: mean survival time, dose: 200.0 mg/kg/injection, schedule: Q01DX001 (ip), vehicle: other 95 % of control | endpoint: mean survival time, dose: 400.0 mg/kg/injection, schedule: Q01DX001 (ip), vehicle: other 95 % of control

C#CCC1(OC(N)=O)CCCCC1
inactive: endpoint: mean survival time, dose: 25.0 mg/kg/injection, schedule: Q01DX009 (ip), vehicle: Klucel (hydroxypropylcellulose) (HPC) 96 % of control | endpoint: mean survival time, dose: 25.0 mg/kg/injection, schedule: Q04DX003 (ip), vehicle: Klucel (hydroxypropylcellulose) (HPC) 102 % of control | endpoint: mean survival time, dose: 50.0 mg/kg/injection, schedule: Q01DX009 (ip), vehicle: Klucel (hydroxypropylcellulose) (HPC) 96 % of control | endpoint: mean survival time, dose: 50.0 mg/kg/injection, schedule: Q04DX003 (ip), vehicle: Klucel (hydroxypropylcellulose) (HPC) 110 % of control | endpoint: mean survival time, dose: 100.0 mg/kg/injection, schedule: Q01DX009 (ip), vehicle: Klucel (hydroxypropylcellulose) (HPC) 110 % of control | endpoint: mean survival time, dose: 100.0 mg/kg/injection, schedule: Q04DX003 (ip), vehicle: Klucel (hydroxypropylcellulose) (HPC) 100 % of control | endpoint: mean survival time, dose: 200.0 mg/kg/injection, schedule: Q01DX009 (ip), vehicle: Klucel (hydroxypropylcellulose) (HPC) 87 % of control | endpoint: mean survival time, dose: 200.0 mg/kg/injection, schedule: Q04DX003 (ip), vehicle: Klucel (hydroxypropylcellulose) (HPC) 107 % of control | endpoint: mean survival time, dose: 400.0 mg/kg/injection, schedule: Q04DX003 (ip), vehicle: Klucel (hydroxypropylcellulose) (HPC) 94 % of control

CCCCOCC(C)O (centres undefined)
inactive: [1] 91 % of control | [2] 96 % of control | [3] 96 % of control
